pEC50: −log10 of the molar value. Values after ≈ are worked out from the molar mass of the structure shown. Values joined by “and” are separate entries in the source; they are usually repeats but may differ in a detail not shown here. Equal values may be shown once. Read-outs that look alike come from different tables or passages of the source. Each block holds one molecule with its values, some of them ahead of it.
Experiments:
[1] = Metabolic stability in human liver microsomes; format: in vitro ADME; conditions: pH 7.4, intrinsic clearance
Procedure: Human liver microsomes were purchased from BioIVT. Metabolic stability was determined in 0.5 mg/mL human liver microsomes at a compound concentration of 1 µM in 100 mM KPO4 buffer pH 7.4 in a total incubation volume of 500 µL. The reaction was initiated by the addition of 1 mM NADPH. At various incubation times, i.e., at 0, 5, 10, 20, 40, and 60 min, a sample was withdrawn from the incubation and the reaction was terminated by the addition of cold acetonitrile with warfarin as an internal standard. The amount of parent compound remaining was analyzed by liquid chromatography coupled to triple quadrupole mass spectrometry (LC-MS/MS).

[2] = system: NF-κB activation in HEK293T pGF NF-κB cells; assay: TNF-α induced NF-κB activation assay; format: cell-based; conditions: for EC50: NFκB activation assay, ± SD, read-out: pEC50 (converted)
Procedure: The inhibition of TNF-α induced NF-κB activation was measured in HEK293T cells transfected with the pGreenfire NF-κB plasmid. This is a plasmid that has NF-κB response elements (TRE) coupled to GFP and luciferase expression. When the NF-κB is activated by TNF-α, it binds to the TRE and induces GFP expression, and the fluorescence can be measured in a plate reader. The cells were authenticated with STR profiling, frozen down and these stocks were used in experiments. The HEK293T pGF NF-κB cells were kept in DMEM with 5% FBS and 1% P/S but, when seeded for the assay the medium was changed to DMEM FluoroBrite with 1% dialyzed FBS. All cell culture reagents were purchased from Thermo Fisher Scientific. Compounds were nano-dispensed (Echo acoustic dispenser) in 96-well, black/clear, assay plates (Corning #3904), duplicate plates, in 8-points dose-response curves, 1:2 dilutions, with DMSO compensation (0.3% DMSO). Cells were seeded at 30000 cells/well in medium containing 10 ng/mL of TNF-α (Sigma-Aldrich), except negative control wells which only contained cells in medium. Cells were cultured for 24 hours in a humidified incubator at 37 °C with 5% CO2 after which the GFP fluorescence was measured in a Sense plate reader (Hidex) with ex485/em535. The RFU data from the duplicate plates were combined to calculate % inhibition of NF-κB activation and IC50-values were calculated using XLfit (IDBS). In parallel with the NF-κB assay, a CellTiterGlo (Promega) cell viability assay was run to exclude compounds affecting cell viability. Compounds were nano-dispensed (Echo acoustic dispenser) in assay plates in 11-points dose-response curves, 1:3 dilutions, without DMSO compensation, with duplicates on the same plate. Cells were seeded at 7500 cells/well in 25 µL medium (DMEM FluoroBrite with 1% dialyzed FBS) containing 10 ng/mL TNF-α and cultured for 24 hours, with column 24 containing only culture medium. After equilibration to room temperature, the CellTiterGlo reagents were mixed and 25 µL/well were added to the cell plate. After 2 min mixing of the plate on an orbital shaker, the plate was incubated for 10 min at room temperature followed by luminescence reading in Sense. The cell viability was calculated compared to untreated control wells and the EC50 values were determined in XLfit (IDBS). […]

[3] = Caco-2 cell permeability assay; format: in vitro ADME; conditions: human, Caco-2, pH 7.4; for Papp A→B at 60 min, 10 µM: read-out: Papp AB (10–6 cm/s); for Papp B→A at 60 min, 10 µM: read-out: Papp BA (10–6 cm/s)
Procedure: Prior to the experiment a drug solution of 10 µM was prepared and warmed to 37 °C. The Caco-2 filters were washed with pre-warmed HBSS prior to the experiment, and thereafter the experiment was started by applying the donor solution on the apical or basolateral side. The transport experiments were carried out at pH 7.4 in both the apical and basolateral chamber. The experiments were performed at 37 °C and with a stirring rate of 500 rpm. The receiver compartment was sampled at 15, 30, and 60 min, and at 60 min also a final sample from the donor chamber was taken to calculate the mass balance of the compound. The samples (100 µL) were transferred to a 96-well plate containing 100 µL methanol and Warfarin as IS and was sealed until analyzed by liquid chromatography coupled to triple quadrupole mass spectrometry (LC-MS/MS).

Thermodynamic solubility = format: physicochemical; conditions: for solubility thermodynamic: thermodynamic from solid
OGG1-GFP in U2OS cells = biological target: T1, OGG1-GFP in U2OS cells (Homo sapiens, UniProt O15527); assay: Laser microirradiation assay (OGG1-GFP recruitment to DNA damage sites); format: cell-based; conditions: for OGG1-GFP recruitment to DNA damage sites, intensity normalised to time 0 (Figure3E): single-cell replicate traces
T1 construct: expressed in transfected cells

OGG1 in HL60 cells = biological target: T2, OGG1 in HL60 cells (Homo sapiens, UniProt O15527); assay: Cellular thermal shift assay (CETSA); format: cell-based
T2 construct: endogenous in cells; host or cells: HL60
Procedure: CETSA experiments were carried out with intact HL60 cells treated in culture. Cells were seeded at a density of 350 000 cells/mL and treated with DMSO (0.01%, v/v) or 20 µM test compound for 2 h at 37 °C and 5% CO2 in a humidified incubator. Cells were washed once in 1x TBS (50 mM Tris-HCl, pH 7.6, 150 mM NaCl), resuspended in 1x TBS supplemented with protease inhibitors (Roche), and then divided into 30-µL aliquots corresponding to approximately 600,000 cells per sample in PCR strip tubes. Cells were heated in a Veriti Thermal Cycler (Applied Biosystems) for 3 min at indicated temperatures (temperature interval consisting of 2 °C increases, starting from 40 °C up to 62 °C) and cooled for 5 min at room temperature to allow precipitation of denatured proteins. 5x NP-40 buffer was added to the samples and cells were lysed by performing three freeze–thaw cycles at −80 °C for 3 min and at 37 °C for 3 min with gentle vortexing between the cycles. Cell lysates were then centrifuged at 17,000 g and 4 °C for 30 min to remove cellular debris and insoluble proteins. Supernatant was prepared for western blot analysis according to standard procedures. […]

T1 sequence (O15527 whole entry): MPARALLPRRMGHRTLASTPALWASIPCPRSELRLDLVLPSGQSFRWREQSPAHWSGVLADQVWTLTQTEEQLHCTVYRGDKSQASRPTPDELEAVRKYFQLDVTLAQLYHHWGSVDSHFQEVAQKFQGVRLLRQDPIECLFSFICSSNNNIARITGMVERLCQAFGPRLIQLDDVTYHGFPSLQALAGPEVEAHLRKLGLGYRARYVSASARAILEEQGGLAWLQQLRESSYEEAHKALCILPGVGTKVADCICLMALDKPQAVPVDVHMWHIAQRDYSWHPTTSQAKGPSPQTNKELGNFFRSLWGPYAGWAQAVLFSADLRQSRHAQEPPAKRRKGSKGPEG
T2 sequence (O15527 whole entry): as above

microsomal CLint at 1 µM [1]: 23.9 µL/min/mg | efflux ratio at 60 min, 10 µM [3]: 6.7 | Papp A→B at 60 min, 10 µM [3]: 19.8 ×10⁻⁶ cm/s | Papp B→A at 60 min, 10 µM [3]: 134 ×10⁻⁶ cm/s | fold higher solubility than TH5487 (Thermodynamic solubility): > 600 fold and > 667 fold | solubility thermodynamic (Thermodynamic solubility): 667 µM (≈ 234 µg/mL)
Compound: Cc1nc(-c2ccc(CC(=O)Nc3noc4c3CCCC4)cc2)c(C)[nH]1 [compound 17]
EC50 ([2]; Homo sapiens, HEK-293T): 19.1 µM

microsomal CLint at 1 µM [1]: 39.7 µL/min/mg | thermal stabilization of OGG1 in cells (CETSA) (OGG1 in HL60 cells): strong thermal stabilization | Papp A→B at 60 min, 10 µM [3]: 6.13 ×10⁻⁶ cm/s | Papp B→A at 60 min, 10 µM [3]: 94.2 ×10⁻⁶ cm/s | solubility thermodynamic (Thermodynamic solubility; single replicate): 16 µM (≈ 6.18 µg/mL)
Compound: Cc1nc(-c2cc(F)c(CC(=O)Nc3noc4c3CCCC4)c(F)c2)c(C)[nH]1 [compound 23]
OGG1-GFP recruitment to DNA damage sites, intensity normalised to time 0 (Figure3E) (OGG1-GFP in U2OS cells; 10uM, time 14 s): 1.25 (2×) and 1.24 (4×) and 1.21 and 1.14 and 1.19 (2×) and 1.22 (2×) and 1.23 and 1.26 and 1.2 | OGG1-GFP recruitment to DNA damage sites, intensity normalised to time 0 (Figure3E) (OGG1-GFP in U2OS cells; 10uM, time 16 s): 1.27 (3×) and 1.26 (2×) and 1.29 (2×) and 1.23 (4×) and 1.12 and 1.19 and 1.18 and 1.24 | OGG1-GFP recruitment to DNA damage sites, intensity normalised to time 0 (Figure3E) (OGG1-GFP in U2OS cells; 10uM, time 18 s): 1.27 (2×) and 1.28 (3×) and 1.24 (3×) and 1.15 and 1.21 and 1.19 and 1.25 (3×) and 1.31 | OGG1-GFP recruitment to DNA damage sites, intensity normalised to time 0 (Figure3E) (OGG1-GFP in U2OS cells; 10uM, time 20 s): 1.3 and 1.29 and 1.33 and 1.26 and 1.15 and 1.24 and 1.21 and 1.27 (2×) and 1.28 | Maximum Intensity (OGG1-GFP at damage sites) (OGG1-GFP in U2OS cells; 50uM, single cells, U2OS): 1.31 and 1.3 and 1.27 and 1.34 and 1.37 and 1.28 and 1.23 and 1.32 | OGG1-GFP recruitment to DNA damage sites, intensity normalised to time 0 (Figure3E) (OGG1-GFP in U2OS cells; 50uM, time 14 s): 1.18 (2×) and 1.14 and 1.21 (4×) and 1.2 (3×) and 1.12 and 1.19 (2×) and 1.22 and 1.23 | OGG1-GFP recruitment to DNA damage sites, intensity normalised to time 0 (Figure3E) (OGG1-GFP in U2OS cells; 50uM, time 16 s): 1.19 and 1.14 and 1.22 (4×) and 1.15 and 1.21 (3×) and 1.2 (2×) and 1.24 and 1.25 and 1.23 | OGG1-GFP recruitment to DNA damage sites, intensity normalised to time 0 (Figure3E) (OGG1-GFP in U2OS cells; 50uM, time 18 s): 1.2 (3×) and 1.15 (2×) and 1.22 (3×) and 1.21 (2×) and 1.24 (3×) and 1.23 and 1.27 | recruitment of OGG1-GFP to laser-induced DNA damage sites (OGG1-GFP in U2OS cells; U2OS cells): impaired | % inhibition of NF-κB activation (Figure3F) ([2]; Concentration 2.34e-7, single replicates): 12.9% and 24.6% and 2.1% | % inhibition of NF-κB activation (Figure3F) ([2]; Concentration 4.69e-7, single replicates): 11.9% and 16.7% and -7.9% | % inhibition of NF-κB activation (Figure3F) ([2]; Concentration 9.38e-7, single replicates): 11% and 6.8% and -9.9% | % inhibition of NF-κB activation (Figure3F) ([2]; Concentration 1.88e-6, single replicates): 11.1% and 26.6% and 2.8% | % inhibition of NF-κB activation (Figure3F) ([2]; Concentration 3.75e-6, single replicates): 21.4% and 46% and -1.3% | % inhibition of NF-κB activation (Figure3F) ([2]; Concentration 7.5e-6, single replicates): 38.5% and 60.8% and 40% | % inhibition of NF-κB activation (Figure3F) ([2]; Concentration 1.5e-5, single replicates): 56.3% and 70.5% and 50.3% | % inhibition of NF-κB activation (Figure3F) ([2]; Concentration 3e-5, single replicates): 64.4% and 84.7% and 71.9% | EC50 ([2]; Homo sapiens, HEK-293T): 6.31 µM | pEC50 ([2]; Homo sapiens, HEK-293T, inhibition of TNF-α-induced NF-κB activation, read-out: EC50): 5.20
